Reference: paper PMC3831368 (Bioorganic & medicinal chemistry, 2013)

Key:
[1] = target: T1, MOR (Mus musculus, UniProt P42866); settings: cited from earlier work
[2] = target: T1, MOR; settings: in vitro radioligand competition binding; cited from earlier work
[3] = test system: morphine antinociception; settings: cited from earlier work
[4] = target: W318A MOR (Mus musculus, UniProt P42866, W318A); test: Competition binding to site-directed mutated MOR W318A; settings: read-out: W318A MOR IC50; ± SEM; transient CHO cells
Sequence of W318A MOR (P42866 whole entry W318A): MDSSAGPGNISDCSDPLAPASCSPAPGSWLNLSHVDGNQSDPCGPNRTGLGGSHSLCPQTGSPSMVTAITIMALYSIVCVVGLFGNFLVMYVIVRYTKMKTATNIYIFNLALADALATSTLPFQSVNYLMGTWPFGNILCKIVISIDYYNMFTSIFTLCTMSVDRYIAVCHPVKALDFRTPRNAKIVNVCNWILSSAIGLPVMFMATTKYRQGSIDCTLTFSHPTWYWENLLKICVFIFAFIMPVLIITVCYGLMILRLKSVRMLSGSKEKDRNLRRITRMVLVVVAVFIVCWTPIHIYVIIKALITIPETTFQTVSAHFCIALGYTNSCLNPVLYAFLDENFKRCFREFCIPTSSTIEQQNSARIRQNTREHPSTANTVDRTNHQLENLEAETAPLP

T1 sequence (P42866 whole entry): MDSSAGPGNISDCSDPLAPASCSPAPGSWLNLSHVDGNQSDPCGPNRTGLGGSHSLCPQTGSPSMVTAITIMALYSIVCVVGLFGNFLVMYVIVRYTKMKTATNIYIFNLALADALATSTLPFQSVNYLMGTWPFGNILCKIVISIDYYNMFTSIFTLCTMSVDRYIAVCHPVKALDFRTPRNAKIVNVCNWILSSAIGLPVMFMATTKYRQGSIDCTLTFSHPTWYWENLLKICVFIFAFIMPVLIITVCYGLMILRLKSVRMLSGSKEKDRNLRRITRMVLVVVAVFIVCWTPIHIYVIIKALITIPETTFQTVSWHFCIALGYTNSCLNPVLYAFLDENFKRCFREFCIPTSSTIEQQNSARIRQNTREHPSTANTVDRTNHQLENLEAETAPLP

Structure (SMILES)	agonism in the in vitro GTPγS assay [1]	affinity for the MOR [2]	antagonism in in vivo antinociceptive test against morphine [3]	IC50 [4]
O=C(N[C@@H]1CC[C@@]2(O)[C@H]3Cc4ccc(O)c5c4[C@@]2(CCN3CC2CC2)[C@H]1O5)c1ccncc1 [NAP]	marginal partial agonism	sub-nanomolar	potent antagonism	
O=C(N[C@H]1CC[C@@]2(O)[C@H]3Cc4ccc(O)c5c4[C@@]2(CCN3CC2CC2)[C@H]1O5)c1cc2ccccc2cn1 [NAQ]	marginal partial agonism	sub-nanomolar	potent antagonism	> 1000 nM
